Results from patent US12514249B2, “Oxaloacetate and related compounds as herbicidal agents” (Verdesian Life Sciences U.S., LLC, priority 2020, dated 2026).

System: plants
Assay: general screening of the herbicidal effect
Type: in vivo
Details: 10% w/w; compared with Roundup RTU and Bayer Advanced (10% and 100% Label Rate) and untreated control; FIG. 1
Description: A general screening of the herbicidal effect of the following compounds was carried out: Bayer Advanced® (100% Label Rate), Bayer Advanced® (10% Lable Rate), UTC (=untreated control), Diethyl Oxalacetate (10% w/w), Roundup® RTU (RTU=ready to use) (10% Label Rate) and Roundup® RTU (100% Label Rate).

CCOC(=O)/C=C(\O)C(=O)OCC [Diethyl Oxalacetate]
herbicidal activity: comparable to well-known herbicide products such as Roundup® and Bayer Advanced®
